Source: paper PMC8820783, “In vitro and in silico studies on clinically important enzymes inhibitory activities of flavonoids isolated from Euphorbia pulcherrima” (Annals of Medicine, 2022)
Read-outs that look alike come from different tables or passages of the source.

Experiments:
[1] = biological target: phosphodiesterase I from Crotalus adamanteus venom (Crotalus adamanteus, UniProt J3SEZ3); experiment: biochemical
[2] = biological target: bovine serum albumin (BSA) glycation by MGO (Bos taurus, UniProt P02769); experiment: Anti-glycation inhibition (BSA-MGO fluorescence); assay type: biochemical; details: 37 °C, 9 days; for IC50: read-out: IC50 ± S.E. (antiglycation)
Sequence of bovine serum albumin (BSA) glycation by MGO (P02769 25-607): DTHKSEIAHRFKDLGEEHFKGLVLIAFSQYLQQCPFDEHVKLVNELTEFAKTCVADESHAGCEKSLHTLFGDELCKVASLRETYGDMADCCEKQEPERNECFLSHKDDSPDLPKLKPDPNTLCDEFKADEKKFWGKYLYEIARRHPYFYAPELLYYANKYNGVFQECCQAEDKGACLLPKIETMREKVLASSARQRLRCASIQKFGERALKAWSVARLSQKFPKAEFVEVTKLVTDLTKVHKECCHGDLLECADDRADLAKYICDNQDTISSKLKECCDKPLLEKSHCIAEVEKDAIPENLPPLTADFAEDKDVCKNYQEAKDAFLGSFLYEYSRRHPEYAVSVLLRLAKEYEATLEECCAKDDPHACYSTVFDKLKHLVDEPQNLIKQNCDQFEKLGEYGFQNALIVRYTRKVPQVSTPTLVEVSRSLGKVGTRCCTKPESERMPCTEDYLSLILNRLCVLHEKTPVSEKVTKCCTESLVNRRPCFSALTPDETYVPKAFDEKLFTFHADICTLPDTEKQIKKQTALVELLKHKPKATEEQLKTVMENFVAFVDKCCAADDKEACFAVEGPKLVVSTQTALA
Procedure: After incubation, glycation of protein was measured using fluorescence (emission, 440 nm; excitation, 330 nm), against a blank, and using a microtiter plate spectrophotometer (Spectra Max, Molecular Devices, Sunnyvale, CA).

mushroom tyrosinase = biological target: T1, mushroom tyrosinase (Agaricus bisporus, UniProt C7FF04); experiment: Tyrosinase inhibition (L-DOPA, 96-well); assay type: biochemical; details: L-DOPA substrate, read-out: IC50 ± S.E. (tyrosinase)
T1 construct: purchased Sigma-Aldrich T3824; host or cells: mushroom (natural source)
T1 sequence (C7FF04 1-392 limits assumed): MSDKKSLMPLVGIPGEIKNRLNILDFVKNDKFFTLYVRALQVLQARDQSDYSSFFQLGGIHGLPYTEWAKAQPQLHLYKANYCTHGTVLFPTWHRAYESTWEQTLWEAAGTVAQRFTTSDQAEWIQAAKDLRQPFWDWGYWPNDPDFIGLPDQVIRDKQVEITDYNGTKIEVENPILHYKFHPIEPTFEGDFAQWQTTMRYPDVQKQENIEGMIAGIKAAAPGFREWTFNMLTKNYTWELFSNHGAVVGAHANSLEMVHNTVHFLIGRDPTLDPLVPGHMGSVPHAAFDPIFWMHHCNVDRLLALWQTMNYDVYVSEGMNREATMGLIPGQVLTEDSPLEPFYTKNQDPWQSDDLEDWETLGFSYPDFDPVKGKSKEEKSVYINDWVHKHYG
Procedure: According to this method, the tested compounds (10 µL) was carefully transfer into a 96-well microplate, mixed with 10 µL mushroom tyrosinase and buffer solution 60 µL. After incubation, 20 µL of 3,4-dihydroxy-l-phenylalanine (L-DOPA) in phosphate buffer was blended, and some amount of dopachrome was added into the reaction mixture. The effect was checked by spectrophotometry at 450 nm with (OD480) (optical density, OD). EZ-Fit software was used to measure the IC50 values in µM. The % inhibition was calculated by using following formula. Percent inhibition=100−OD test well/OD control×100

[3] = biological target: Jack bean (Canavalia ensiformis) urease (Canavalia ensiformis, UniProt P07374); experiment: biochemical
Sequence of Jack bean (Canavalia ensiformis) urease (P07374 whole entry, looked up): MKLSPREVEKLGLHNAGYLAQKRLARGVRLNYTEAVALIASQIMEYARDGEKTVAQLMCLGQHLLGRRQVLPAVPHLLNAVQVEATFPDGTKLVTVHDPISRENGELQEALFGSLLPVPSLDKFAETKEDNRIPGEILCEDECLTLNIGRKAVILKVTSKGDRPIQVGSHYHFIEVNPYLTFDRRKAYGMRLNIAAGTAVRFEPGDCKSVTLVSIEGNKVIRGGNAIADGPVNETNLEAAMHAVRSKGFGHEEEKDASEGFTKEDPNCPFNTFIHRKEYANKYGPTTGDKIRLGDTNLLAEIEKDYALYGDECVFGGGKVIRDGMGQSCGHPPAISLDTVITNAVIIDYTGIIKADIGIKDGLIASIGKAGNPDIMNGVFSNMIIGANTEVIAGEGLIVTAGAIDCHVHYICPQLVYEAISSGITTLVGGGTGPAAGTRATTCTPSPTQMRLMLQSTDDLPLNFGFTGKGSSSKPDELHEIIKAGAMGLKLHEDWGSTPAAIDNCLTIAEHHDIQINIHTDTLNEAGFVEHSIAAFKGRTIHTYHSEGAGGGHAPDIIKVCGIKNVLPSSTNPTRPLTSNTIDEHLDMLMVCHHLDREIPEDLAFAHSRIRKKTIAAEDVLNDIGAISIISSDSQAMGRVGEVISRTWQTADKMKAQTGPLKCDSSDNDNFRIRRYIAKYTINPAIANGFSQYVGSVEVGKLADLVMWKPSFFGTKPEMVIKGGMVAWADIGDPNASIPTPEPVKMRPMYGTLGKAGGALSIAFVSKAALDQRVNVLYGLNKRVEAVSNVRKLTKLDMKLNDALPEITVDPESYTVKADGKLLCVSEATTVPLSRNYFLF

Sequence of phosphodiesterase I from Crotalus adamanteus venom (J3SEZ3 24-851 limits assumed): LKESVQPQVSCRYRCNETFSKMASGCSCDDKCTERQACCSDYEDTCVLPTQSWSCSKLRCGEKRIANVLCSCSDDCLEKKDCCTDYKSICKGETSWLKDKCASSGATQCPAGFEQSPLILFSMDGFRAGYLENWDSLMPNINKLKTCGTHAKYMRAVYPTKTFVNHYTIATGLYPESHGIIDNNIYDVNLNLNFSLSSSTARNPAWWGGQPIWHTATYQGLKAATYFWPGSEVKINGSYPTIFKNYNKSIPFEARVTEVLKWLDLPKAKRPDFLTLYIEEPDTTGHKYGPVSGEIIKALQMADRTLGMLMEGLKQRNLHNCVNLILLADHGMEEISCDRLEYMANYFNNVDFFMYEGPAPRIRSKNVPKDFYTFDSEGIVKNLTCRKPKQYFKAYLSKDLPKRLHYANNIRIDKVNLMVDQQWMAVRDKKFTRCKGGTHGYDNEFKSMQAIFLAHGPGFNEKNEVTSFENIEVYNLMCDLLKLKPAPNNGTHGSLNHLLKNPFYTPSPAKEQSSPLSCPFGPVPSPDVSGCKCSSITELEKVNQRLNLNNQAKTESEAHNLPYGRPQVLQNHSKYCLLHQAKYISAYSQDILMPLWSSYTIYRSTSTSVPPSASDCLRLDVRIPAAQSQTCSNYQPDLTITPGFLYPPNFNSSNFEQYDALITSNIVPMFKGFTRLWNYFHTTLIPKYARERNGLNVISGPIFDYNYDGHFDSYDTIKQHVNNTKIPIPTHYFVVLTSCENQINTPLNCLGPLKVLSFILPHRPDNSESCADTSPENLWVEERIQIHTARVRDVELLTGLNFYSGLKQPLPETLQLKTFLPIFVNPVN

## O=C(O)CN(CCN(CC(=O)O)CC(=O)O)CC(=O)O [EDTA, reference compound]
[1]; table head prints no unit, read-out: IC50 ± S.E.M. (phosphodiesterase)
  IC50: 265 ± 2.24 µM

## COc1cc(-c2oc3cc(O)c(OC)c(O)c3c(=O)c2O)ccc1O [compound 1, 3,5,7-trihydroxy-2-(4-hydroxy-3-methoxyphenyl)-6-methoxy-4H-chromen-4-one]
[2]
  IC50 ± S.E. (antiglycation): inactive
[1]
  IC50: 148.7 ± 1.09 µM
Mushroom tyrosinase
  IC50: 48.7 ± 2.19 µM
[3]
  IC50: 15.3 ± 2.13 µM

## COc1c(O)cc2oc(-c3ccc(O)c(O)c3)c(O)c(=O)c2c1O [compound 2, 2-(3,4-dihydroxyphenyl)-3,5,7-trihydroxy-6-methoxy-4H-chromen-4-one]
[2]
  IC50: 244.8 ± 1.79 µM
[1]
  IC50: 95.2 ± 4.14 µM
Mushroom tyrosinase
  IC50: 74.8 ± 1.79 µM
[3]
  IC50: 19 ± 2.43 µM

## C[C@@H]1O[C@@H](OC[C@H]2O[C@@H](Oc3c(-c4ccc(O)c(O)c4)oc4cc(O)cc(O)c4c3=O)[C@H](O)[C@@H](O)[C@@H]2O)[C@H](O)[C@H](O)[C@H]1O [rutin, Rutin, reference compound]
[2]
  IC50: 295 ± 3.14 µM
